# Measured values from ChEMBL document CHEMBL5518198, “Three Rounds of Stability-Guided Optimization and Systematical Evaluation of Oncolytic Peptide LTX-315” (J Med Chem, 2024).
# Key:
# [1] = Drug localization in human HeLa cells mitochondria assessed as mander's colocalization coefficient at 25 uM after 10 to 120 mins by Mito-Tracker red CMXRos staining based fluorescence microscopic analysis; assay type: ADME; settings: time 10-120 min
# [2] = Drug localization in human HeLa cells mitochondria assessed as mander's colocalization coefficient at 25 uM within 2 hrs by Mito-Tracker red CMXRos staining based fluorescence microscopic analysis; assay type: ADME
# [3] = Drug localization in human HeLa cells nucleus assessed as mander's colocalization coefficient at 25 uM after 2 to 120 mins by SYBR green I staining based fluorescence microscopic analysis; assay type: ADME, subcellular; settings: time 2-120 min
# [4] = Drug localization in human HeLa cells mitochondria at 25 uM by Mito-Tracker red CMXRos staining based fluorescence microscopic analysis; assay type: ADME
# [5] = Stability in human serum assessed as compound degradation by measuring increase in fluorescence intensity at 100 uM after 36 to 48 hrs by IQF based assay; assay type: ADME, cell-free; settings: time 36-48 hrs
# [6] = biological target: Trypsin (Homo sapiens, UniProt P07477+P07478+P35030); test: Stability of compound assessed as trypsin (unknown origin) mediated compound degradation by measuring increase in fluorescence intensity at 100 uM after 36 to 48 hrs by IQF based assay; assay type: ADME, protein assay; settings: time 36-48 hrs
# [7] = Stability of compound in mouse A20 cells assessed as compound degradation by measuring increase in fluorescence intensity at 10 uM after 36 to 48 hrs by IQF based assay; assay type: ADME, cell-based; settings: a20, 10 µM, time 36-48 hrs
SMILES,Drug uptake [1],Drug uptake [2] [%],Drug uptake [3] [%],Drug uptake [4],Stability [5],Stability [6],Stability [7]
CCN(CC)c1ccc2cc(C(=O)NCCOCC(=O)N[C@H](CCCCN)C(=O)N[C@H](CCCCN)C(=O)N[C@H](Cc3c[nH]c4ccccc34)C(=O)N[C@H](Cc3c[nH]c4ccccc34)C(=O)N[C@H](CCCCN)C(=O)N[C@H](CCCCN)C(=O)N[C@H](Cc3c[nH]c4ccccc34)C(=O)N[C@@H](C(=O)N[C@H](CCCCN)C(N)=O)C(c3ccccc3)c3ccccc3)c(=O)oc2c1,Not Active,> 80,< 20,Active,–,–,–
NCCCC[C@H](NC(=O)c1ccccc1N)C(=O)N[C@@H](CCCCN)C(=O)N[C@@H](Cc1c[nH]c2ccccc12)C(=O)N[C@@H](Cc1c[nH]c2ccccc12)C(=O)N[C@@H](CCCCN)C(=O)N[C@@H](CCCCN)C(=O)N[C@@H](Cc1c[nH]c2ccccc12)C(=O)N[C@H](C(=O)N[C@@H](CCCCN)C(=O)N[C@@H](CCCCNc1ccc([N+](=O)[O-])cc1[N+](=O)[O-])C(N)=O)C(c1ccccc1)c1ccccc1,–,–,–,–,Unstable,Unstable,Unstable
